From the supplement of paper PMC10307832

Compound: C[C@@H](C(=O)N[C@@H](C1CCCCC1)C(=O)N2CCC[C@H]2C(=O)N[C@@H]3[C@@H](CC4=CC=CC=C34)OCC#CC#CCO[C@@H]5CC6=CC=CC=C6[C@@H]5NC(=O)[C@@H]7CCCN7C(=O)[C@H](C8CCCCC8)NC(=O)[C@H](C)NC)NC [AZD5582] + Nc1ncn([C@H]2C[C@H](O)[C@@H](CO)O2)c(=O)n1 [Decitabine] (partner 2 µM)
Experiment: relative viability (nuclei count vs DMSO), 5 days (fraction); higher = more cells survive
Details: first compound 0.001581 µM
Method in brief: (§1)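 Lung cancer cell lines, seeded in 1536-well plates, were treated the following day by pin tool with a single drug or with five library-drug doses (not always all listed) in √10 steps on top of a fixed anchor-drug dose. Cells were fixed and nuclei stained in one step after 5 days, and nuclei were counted. Relative viability is the nuclei count for treated wells divided by that for vehicle wells, reported as medians of duplicate plates.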

In order of falling relative viability:
1. ABC-1  1.06
2. EMC-BAC-2  0.892
3. LU99A  0.882
4. 201T  0.866
5. HCC-44  0.828
6. LC-2-ad  0.822
7. LOU-NH91  0.803
8. HCC-78  0.786
9. BEN  0.699
10. LCLC-103H  0.698
11. NCI-H1395  0.694
12. NCI-H2342  0.692
13. COR-L 105  0.666
14. NCI-H522  0.624
15. HARA  0.595
16. H3255  0.556
17. ChaGo-K-1  0.545
18. HCC-15  0.534
19. NCI-H1648  0.502
20. A-427  0.496
21. NCI-H2170  0.489
22. NCI-H1793  0.487
23. COR-L23  0.476
24. NCI-H1944  0.432
25. LXF-289  0.372
26. SW 900  0.372
27. EKVX  0.351
28. HCC-366  0.346
29. SK-MES-1  0.336
30. HCC-827  0.281
31. LK-2  0.257
32. LCLC-97TM1  0.216
33. A549  0.214
34. HOP-62  0.213
35. NCI-H358  0.199
36. EPLC-272H  0.148

Same assay, conditions: first compound 0.005 µM

In order of rising relative viability:
1. LCLC-97TM1  0.189
2. HOP-62  0.209
3. NCI-H358  0.241
4. A549  0.271
5. LK-2  0.277
6. HCC-827  0.292
7. LXF-289  0.331
8. SW 900  0.364
9. SK-MES-1  0.365
10. HCC-366  0.37
11. EKVX  0.377
12. COR-L23  0.441
13. NCI-H2170  0.474
14. NCI-H1944  0.485
15. NCI-H1648  0.528
16. HARA  0.53
17. HCC-15  0.559
18. ChaGo-K-1  0.579
19. A-427  0.582
20. NCI-H1793  0.607
21. H3255  0.626
22. BEN  0.668
23. HCC-78  0.703
24. NCI-H522  0.711
25. COR-L 105  0.724
26. NCI-H1395  0.743
27. HCC-44  0.786
28. LCLC-103H  0.798
29. LOU-NH91  0.835
30. NCI-H2342  0.835
31. LC-2-ad  0.847
32. 201T  0.913
33. EMC-BAC-2  0.97
34. ABC-1  1.08
35. LU99A  1.09

Same assay, conditions: first compound 0.01581 µM

In order of rising relative viability:
1. A549  0.211
2. LCLC-97TM1  0.243
3. NCI-H358  0.245
4. HOP-62  0.247
5. EKVX  0.294
6. LK-2  0.307
7. HCC-827  0.348
8. SW 900  0.38
9. EPLC-272H  0.385
10. HCC-366  0.386
11. LXF-289  0.391
12. SK-MES-1  0.416
13. COR-L23  0.445
14. NCI-H1793  0.473
15. NCI-H2170  0.478
16. NCI-H1944  0.494
17. ChaGo-K-1  0.509
18. HARA  0.565
19. H3255  0.572
20. A-427  0.573
21. HCC-15  0.602
22. NCI-H522  0.624
23. COR-L 105  0.632
24. BEN  0.683
25. HCC-78  0.688
26. NCI-H2342  0.698
27. LCLC-103H  0.718
28. LC-2-ad  0.765
29. LOU-NH91  0.824
30. LU99A  0.829
31. HCC-44  0.845
32. 201T  0.856
33. EMC-BAC-2  0.887
34. ABC-1  0.931

Same assay, conditions: first compound 0.05 µM

In order of rising relative viability:
1. EPLC-272H  0.0824
2. LCLC-97TM1  0.0933
3. HOP-62  0.213
4. NCI-H358  0.215
5. SW 900  0.246
6. A549  0.263
7. HCC-827  0.308
8. LXF-289  0.308
9. LK-2  0.326
10. SK-MES-1  0.347
11. EKVX  0.385
12. HCC-366  0.395
13. HCC-15  0.418
14. NCI-H1944  0.457
15. NCI-H1648  0.466
16. COR-L23  0.481
17. HARA  0.49
18. NCI-H2170  0.504
19. A-427  0.53
20. NCI-H1793  0.53
21. H3255  0.553
22. HCC-78  0.585
23. ChaGo-K-1  0.597
24. BEN  0.62
25. NCI-H522  0.641
26. HCC-44  0.681
27. NCI-H2342  0.702
28. COR-L 105  0.723
29. LCLC-103H  0.724
30. LC-2-ad  0.764
31. NCI-H1395  0.782
32. LOU-NH91  0.794
33. EMC-BAC-2  0.841
34. LU99A  0.97
35. 201T  1.02
36. ABC-1  1.36

Compound: C[C@@H](C(=O)N[C@@H](C1CCCCC1)C(=O)N2CCC[C@H]2C(=O)N[C@@H]3[C@@H](CC4=CC=CC=C34)OCC#CC#CCO[C@@H]5CC6=CC=CC=C6[C@@H]5NC(=O)[C@@H]7CCCN7C(=O)[C@H](C8CCCCC8)NC(=O)[C@H](C)NC)NC [AZD5582] + CC(C)C[C@H](NC(=O)[C@H](Cc1ccccc1)NC(=O)c1cnccn1)B(O)O [Bortezomib] (partner 0.002 µM)
Experiment: as above
Details: first compound 0.001581 µM
Method in brief: as §1

In order of rising relative viability:
1. ABC-1  0.282
2. CAL-12T  0.777
3. BEN  0.786
4. A-427  0.92
5. COR-L23  0.942
6. 201T  1.1
